System: diamondback moth (Plutella xylostella)
Assay: Control test against diamondback moth (Plutella xylostella), cabbage leaf spray
Format: in vivo
Conditions: 500 ppm active ingredient, sprayed on cabbage seedlings 20 mL/seedling, 2nd instar larvae, after 5 days, 25° C.
Experimental: Next, a Test Example is used to show efficacy of the Present compound against pests. In the following Test Example, the test was carried out at 25° C. The Present compound was formulated according to the process described in the Formulation Example 6 to obtain a formulation, and water containing a spreader (0.03% by volume) was added thereto to prepare a diluted solution containing 500 ppm of the active ingredient. Cabbage (Brassicae oleracea) seedlings (on the developmental stage of the second to third true leaf) were planted in a container, and said diluted solution was sprayed into the leaves of the seedlings at a ratio of 20 mL/seedling. Thereafter, the stems and leaves of the seedlings were cut out, and the leaves were placed into a container lined with a filter paper. Approximately five the 2nd instar larvae of diamondback moth (Plutella xylostella) were released into the container. After 5 days, the number of the surviving insects was examined, and the controlling value was calculated by the following equation. […] Controlling value (%)={1−(Cb×Tai)/(Cai×Tb)}×100 wherein the symbols in the equation represent the following meanings. […]

SMILES: Cc1cccc(-n2nnn(C)c2=O)c1Cn1nnn(-c2cccc(C)c2COc2ccn(-c3ccc(Cl)cc3)n2)c1=O [Present compound]
- Controlling value (control effects): 100%

Reference: patent US10939681B2, “Tetrazolinone compound and use thereof” (SUMITOMO CHEMICAL COMPANY, LIMITED, priority 2017, dated 2021)
